Counter-ions that a name gives are not always drawn.
Assay: collision cross section in nitrogen (drift tube, single-field); higher = larger gas-phase ion size
[1] = ion type: [M+H], ion source: APCI, ion mode: Positive
[2] = ion type: [M+Na], ion source: ESI, ion mode: Positive
[3] = ion type: [M-H], ion source: ESI, ion mode: Negative
[4] = ion type: [M+H], ion source: ESI, ion mode: Positive
[5] = ion type: [M+], ion source: APCI, ion mode: Positive
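Also: chemical standards at 10 µM analysed by drift tube IMS-QTOF MS in about 3.95 torr nitrogen, mean of duplicate injections differing ≤1%, mass error below 10 ppm.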

| Compound | collision cross section in nitrogen [1] [Å²] | collision cross section in nitrogen [2] [Å²] | collision cross section in nitrogen [3] [Å²] | collision cross section in nitrogen [4] [Å²] | collision cross section in nitrogen [5] [Å²] |
| --- | --- | --- | --- | --- | --- |
| CC(C)OC(=O)C(C)N(C(=O)c1ccccc1)c1ccc(F)c(Cl)c1 (stereo not given) [Flamprop-isopropyl] | 182.1 | 193.4 |  |  |  |
| O=C1NC(=O)C2CC=CCC12 (stereo not given) [1,2,3,6-Tetrahydrophthalimide] |  |  | 132.6 |  |  |
| CCCCOC(=O)C(C)Oc1ccc(Oc2ccc(C(F)(F)F)cn2)cc1 (stereo not given) [Fluazifop-butyl] | 195.5 | 194.4 | 188.7 | 195.1 |  |
| CCOC(=O)Cn1c(=O)sc2cccc(Cl)c21 [Benazolin-ethyl] |  | 165.4 |  |  |  |
| Cc1cccc(N(C)C(=S)Oc2ccc3ccccc3c2)c1 [Tolnaftate] | 175.5 | 185.4 |  | 175.4 |  |
| Cc1ccc(-c2cc(C(F)(F)F)nn2-c2ccc(S(N)(=O)=O)cc2)cc1 [Celecoxib] |  |  | 190.8 | 187.3 |  |
| Nc1ccc2cc3ccc(N)cc3nc2c1 [Proflavin hydrochloride] | 143.4 |  |  | 143.9 |  |
| CNC(=O)ON=C(SC)C(=O)N(C)C [Oxamyl] |  | 150.9 |  |  |  |
| CC(C)(O)c1cnn2c(-c3ccc(F)c(-c4c(F)cccc4C#N)c3)cnc2n1 | 197.1 | 209.2 | 198.6 | 196.4 |  |
| CC[C@H](C)[C@@H](C(=O)O)n1sc2ccccc2c1=O |  | 169.8 | 159.8 | 155.1 |  |
| O=c1[nH]c(=O)c2[nH]c(=O)[nH]c2[nH]1 [Uric acid] |  |  | 126.4 |  |  |
| CCOc1nc(F)cc2nc(S(=O)(=O)Nc3c(Cl)cccc3Cl)nn12 [Diclosulam] | 184.6 | 194 | 183 | 183.5 |  |
| CC(C)(C)C(O)(CCc1ccc(Cl)cc1)Cn1cncn1 (stereo not given) [Tebuconazole] | 167.5 | 172.5 |  | 166.8 |  |
| Cc1occc1C(=O)Nc1ccc(C(=O)N2CCC(F)(F)/C(=C\C(=O)N3CCC(N4CCCCC4)CC3)c3ccccc32)cc1 [YM 218] | 240.1 | 262.5 |  | 239 |  |
| Cc1ccc2[nH]c3cc4c(=O)c5cc(C)ccc5[nH]c4cc3c(=O)c2c1 [C.I. Pigment Red 122] | 183.4 |  | 185.7 |  |  |
| CCCCc1nc2cccnc2n1Cc1ccc(-c2ccccc2-c2nnn[nH]2)cc1 | 197 | 205.8 | 204.3 | 196.8 |  |
| C#CCN1C(=O)COc2cc(F)c(N3C(=O)C4=C(CCCC4)C3=O)cc21 [Flumioxazin] |  |  | 184.5 | 183.7 | 181 |
| O=C1CN(N=Cc2ccc(-c3ccc([N+](=O)[O-])cc3)o2)C(=O)N1 [Dantrolene sodium] |  |  | 180 |  |  |
| COC(OC)(C(=O)c1ccccc1)c1ccccc1 [2,2-Dimethoxy-1,2-diphenylethanone] |  | 170.6 |  |  |  |
| c1cnc2c(c1)ccc1cccnc12 [1,10-Phenanthroline] | 131.3 | 146 |  | 132.4 |  |
| COc1cc(Cl)c(OC)cc1N [2,5-Dimethoxy-4-chloroaniline] |  |  |  | 145 | 133 |
| NC(=O)OCC(COC(N)=O)c1ccccc1 [Felbamate] |  | 159.6 |  |  |  |
| CCOC(=O)N1CCC(=C2c3ccc(Cl)cc3CCc3cccnc32)CC1 [Loratadine] | 187.9 | 195.1 |  | 187.4 |  |
| O=C(c1ccccc1)c1ccc(O)c(O)c1O [2,3,4-Trihydroxbenzophenone] |  |  | 151.1 |  |  |

Reference: the supplement of paper PMC12317010
